Results from paper PMC11926880, “Procognitive Potential of Neuroprotective Triazine 5-HT6 Receptor Antagonists Tested on Chronic Activity In Vivo in Rats: Computer-Aided Insight into the Role of Chalcogen-Differences on the Pharmacological Profile” (ACS Chemical Neuroscience, 2025).
Where two headings read alike, the source gives them in different places.

Experiments:
HT-22 cell line = assay: protection against Aβ1–42, cell membrane damage (ToxiLight); type: cell-based, mouse; conditions: 10 μM pretreatment 1 h, Aβ1–42 35 μM 16 h
Experimental: Cells were cultured in Dulbecco’s modified Eagle’s Medium-high glucose (DMEM, GlutaMAX ThermoFisher) supplemented with 10% inactivated fetal bovine serum heat (Thermo Fisher), 100 IU/mL penicillin (Merck), and 100 μg/mL streptomycin (Merck). Cells were cultured in flasks (area 175 cm^2, Nunc) and incubated at 37 °C, 5% CO2. To measure the neuroprotective effect against Aβ1–42, cells were placed in a 96-well culture plate (5 × 10^3 cells per well, Falcon). To measure the toxicity of tested compounds, cells were placed in a 96-well culture plate (5 × 10^3 and 2 × 10^4 cells per well, Falcon).
Stock solutions were prepared at a concentration of 10 mM for the tested compounds. A minimum of 1 mg of each tested compound was weighed and dissolved in an appropriate volume of dimethyl sulfoxide (DMSO). Serial dilutions were prepared in DMSO, and then, the diluted compounds were transferred to phosphate-buffered saline (PBS), mixed, and put into a medium with adherent cells. Before the assays, eventual precipitation or opalescence was checked. […]
Then, 20 μL of adenylate kinase detection reagent was added. The luminescence was measured after 10 min of incubation with a plate reader, POLARstar Omega (BMG Labtech). The results are expressed as a percentage of the control (Aβ1–42), corresponding to the percentage of dead cells concerning the control sample.

[1] = pharmacokinetics in serum after single i.p. administration; type: in vivo, rat; conditions: for Vd/F: read-out: Vz/F; for half-life: read-out: t1/2λz
Experimental: Standard laboratory food (LSM-B) and filtered water as well as environment enrichment were freely available. Animals were randomly divided into treatment groups using a computer-based random order generator. All of the experiments were performed by two observers unaware of the treatment applied between 9:00 and 14:00 on separate groups of animals.
Rats were injected with the investigated compounds once (in pharmacokinetic studies) and for 21 days (in behavioral studies), and afterward, behavioral tests were conducted and tissue collection was done, as required. For pharmacokinetic studies, animals were fasted prior to dosing by withholding food but not water overnight. After dosing, the food was withheld for an additional 8 h. All animals were used only once. Animals were handled every day and weighed every other day in the chronic part of the experiment. Procedures involving animals and their care were conducted in accordance with current European Community and Polish legislations on animal experimentation. Additionally, all efforts were made to minimize animals’ suffering and to use only the number of animals necessary to produce reliable scientific data. […] The research program complies with the commonly accepted ‘3Rs’ (replacement and reduction of animals, refinement of experimental conditions, and procedures to minimize the harm to animals).
Moreover, five tissues (i.e., brain, heart, lungs, kidneys, and liver) were harvested and rinsed with cold saline. Blood was allowed to clot at room temperature for 15–20 min and then centrifuged (3000 rpm for 10 min). The obtained serum and tissues were stored at −80 °C until analysis.
Peak areas were integrated automatically using an EZChrome Elite v. 3.3.2 software (VWR, Darmstadt, Germany) chromatographic workstation.
The mobile phase consisting of methanol −10 mM potassium dihydrogen phosphate buffer (pH 4.6) and acetonitrile (51:40:9, v/v/v) was passed under vacuum through a 0.22 μm filter membrane.
Before analysis, tissue samples were thawed, weighed (200–250 mg), and placed in 5 mL plastic tubes with four volumes (w/v) of PBS (pH 7.4) and homogenized individually using a MICCRA D-1 homogenizer (ART Prozess & Labortechnik GmbH & Co., Germany). Serum (500 μL) or homogenate samples (500 μL) were mixed with an IS solution ((RS)-4-(4-methylpiperazin-1-yl)-6-(1-phenoxypropyl)-1,3,5-triazin-2-amine), 50 ng/mL in methanol. The samples were alkalized with 50 μL of 4 M sodium hydroxide solution, vortex-mixed, and extracted with 1 mL of ethyl acetate/hexane (30/70, v/v) mixture on a shaker (VXR Vibrax, IKA, Germany) for 20 min. After centrifugation (Eppendorf, Mini Spin Plus, Bionovo, Poland), the organic layers were transferred into new Eppendorf tubes containing 100 μL of methanol and 0.1 M sulfuric acid (10/90, v/v) mixture. Then, the samples were shaken and centrifuged again. Finally, 60–90 μL of each acidic layer was injected into the HPLC system.
The method was validated according to the procedures and acceptance criteria recommended for bioanalytical method validation for pharmacokinetic studies.[45]
The serum concentration–time data were analyzed by a noncompartmental method using the WinNonlin 8.2 nonlinear least-squares regression program (Pharsight Corporation, a Certara Company, Princeton, NJ, USA) to obtain pharmacokinetic parameters. […] The area under the serum concentration–time curve from time zero to time t (AUC0–t), where t is the time of the last measurable sample, was calculated according to the linear trapezoidal rule. The AUC from time zero to infinity (AUC0–∞) was estimated as AUC0–t + Ct/λz, where Ct was the serum concentration of the last measurable sample. The clearance (CL/F) was calculated as D/AUC0–∞, and the volume of distribution based on the terminal phase (Vz/F) was estimated as D/(λz·AUC0–∞), where F is the bioavailability of intraperitoneal administration.

NRF2 = assay: Western blot for NRF2 (total and nuclear extracts); type: cell-based, human; conditions: 10 μM, 24 h
[2] = design: method as in PMID 38190615, PMID 35228010; conditions: LC/MS after biotransformation in rLMs; cited from earlier work
SH-SY5Y cells = assay: MTS cell viability assay 27 h; type: cell-based, human; conditions: for IC50: SH-SY5Y
Experimental: This study used the human neuroblastoma cell line SH-SY5Y (ATCC no. CRL-2266) to investigate the effect on the neuronal cells. The cells (8 × 10^3 cells/100 μL/well) were seeded in transparent 96-well plates (Thermo Scientific, Nunc, no. 161093) in DMEM/F12 (Gibco, no. 11039021) supplemented with 10% FBS (Gibco, no. 10500-064) and cultured overnight. […] Treatment with the compounds was performed for 27 h. After incubation, the cell viability was examined using an MTS-based CellTiter96 AQueous One Solution Cell Proliferation Assay (Promega, Madison, WI, USA) following the manufacturer’s protocol. Briefly, 20 μL of MTS solution was pipetted into each well containing 100 μL of culture or culture medium (negative control) and incubated at 37 °C for 1 h. The absorbance was measured at 490 nm using a Tecan Spark’s multimode plate reader (Tecan, Männedorf, Switzerland). A reference wavelength of 630 nm was used to subtract the background.

[3] = 1.0 mg/kg i.p., single, 1 mg/kg
[4] = male, Wistar, rat, ip, 0.3 mg/kg i.p., single
[5] = male, Wistar, rat, ip, 0.3 mg/kg, 0.3 mg/kg i.p., single
[6] = male, Wistar, rat, ip, 1.0 mg/kg i.p., single
[7] = male, Wistar, rat, ip, 1 mg/kg, 1.0 mg/kg i.p., single

CN1CCN(c2nc(N)nc(C(C)(C)Sc3ccc4ccccc4c3)n2)CC1 [WA-22, 4-(4-methylpiperazin-1-yl)-6-(2-(naphthalen-2-ylthio)propan-2-yl)-1,3,5-triazin-2-amine]
protection of cell integrity against membrane destruction caused by Aβ1–42 (HT-22 cell line): neuroprotective activities
Cmax after 1.0 mg/kg i.p. in relation to 0.3 mg/kg i.p. [1]: 3.8 fold
Cmax ([1]; 0.3 mg/kg i.p., single, 0.3 mg/kg): 18.65 ± 1.87 ng/mL
Cmax [1, 3]: 71.05 ± 26.52 ng/mL
Vz/F [1, 3]: 75.43 ± 28.17 L/kg
t1/2λz [1, 3]: 2.8115 ± 0.7785 h
AUC(0-t) [1, 4]: 14 ng·h/mL
CL/F [1, 4]: 255 mL/min/kg
MRT [1, 4]: 1.61 h
Tmax [1, 4]: 5 min
Cmax ([1]; male, Wistar, rat, ip, 0.3 mg/kg, 0.3 mg/kg i.p., single, read-out: Cmax): 18.7 ng/mL
Vd/F [1, 5]: 28.1 ± 6.41 L/kg
half-life [1, 5]: 1.29 ± 0.349 h
AUC(0-inf) ([1]; male, Wistar, rat, ip, 1 mg/kg i.p., single): 55.9 ng·h/mL
AUC(0-t) [1, 6]: 42.3 ng·h/mL
CL/F [1, 6]: 313 mL/min/kg
MRT [1, 6]: 2.7 h
Tmax [1, 6]: 5 min
Cmax ([1]; male, Wistar, rat, ip, 1 mg/kg, 1.0 mg/kg i.p., single, read-out: Cmax): 71.1 ng/mL
Vd/F [1, 7]: 75.4 L/kg
half-life [1, 7]: 2.81 h
NRF2 protein amount (total extract) (NRF2; GAPDH loading control): protein amount was not modulated
NRF2 translocation from cytoplasm to nucleus (NRF2; nuclear extracts, H3 loading control): effectively induce a shuffling of this protein inside the nucleus
metabolic stability, % of remaining structure [2]: 74%
IC50 (SH-SY5Y cells; Homo sapiens, 27 h, read-out: IC50 x̅ ± SD, MTS, SH-SY5Y, 27 h of exposure): > 200 µM
effect on cell viability (SH-SY5Y cells; all tested concentrations (0–50 μM), 27 h): did not affect cell viability
IC50 (SH-SY5Y cells; read-out: IC50 x̅ ± SD, MTS, 27 h of exposure): 238 ± 15 µM
